# Columns and labels:
# Test in all cases: combination Emax (second highest fraction inhibited in the dose matrix, 72 h); higher = more inhibition; extreme values may be limits of the assay
# [1] = test system: 23132-87 (Gastric Carcinoma)
# Procedure, shortened: (§1)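 Cell lines grown in DMEM/F12 or RPMI with 10% FBS were plated in 1536-well plates and held 24 hours at 37°C, 5% CO2 before 72 hours of exposure to two-drug dose matrices, with DMSO typically at 0.2%. CellTiter-Glo 2.0 luminescence gave viability, which was converted to inhibition. Vehicle wells were set to 0 and blank wells to 1. Combination Emax is the second-highest inhibition in the matrix, and Bliss excess is the observed combination effect minus the expected EA + EB − EA·EB, where EA and EB are the single-agent effects.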
# [2] = test system: HCT-15 (Colorectal Carcinoma)
# Procedure, shortened: as §1
# [3] = test system: PSN1 (Pancreatic Carcinoma)
# Procedure, shortened: as §1
# [4] = test system: LK-2 (Squamous Cell Lung Carcinoma)
# Procedure, shortened: as §1
# [5] = test system: SK-PN-DW (Other Solid Carcinomas)
# Procedure, shortened: as §1
# [6] = test system: NCI-H23 (Lung Adenocarcinoma)
# Procedure, shortened: as §1
# WM793B (Melanoma) = test system: WM793B (Melanoma)
# Procedure, shortened: as §1
# [7] = test system: COLO-680N (Esophageal Squamous Cell Carcinoma)
# Procedure, shortened: as §1
# [8] = test system: RERF-GC-1B (Gastric Carcinoma)
# Procedure, shortened: as §1
# GB-1 (Glioblastoma) = test system: GB-1 (Glioblastoma)
# Procedure, shortened: as §1
# [9] = test system: OVMIU (Ovarian Carcinoma)
# Procedure, shortened: as §1
# [10] = test system: SHP-77 (Small Cell Lung Carcinoma)
# Procedure, shortened: as §1
# [11] = test system: RERF-LC-Sq1 (Squamous Cell Lung Carcinoma)
# Procedure, shortened: as §1
# [12] = test system: LB996-RCC (Kidney Carcinoma)
# Procedure, shortened: as §1
# [13] = test system: MKN45 (Gastric Carcinoma)
# Procedure, shortened: as §1
# [14] = test system: CAL-120 (Breast Carcinoma)
# Procedure, shortened: as §1
# WM278 (Melanoma) = test system: WM278 (Melanoma)
# Procedure, shortened: as §1
# [15] = test system: GP5d (Colorectal Carcinoma)
# Procedure, shortened: as §1
# A2058 (Melanoma) = test system: A2058 (Melanoma)
# Procedure, shortened: as §1
# IST-MES1 (Mesothelioma) = test system: IST-MES1 (Mesothelioma)
# Procedure, shortened: as §1
Structure (SMILES),combination Emax [1],combination Emax [2],combination Emax [3],combination Emax [4],combination Emax [5],combination Emax [6],combination Emax (WM793B (Melanoma)),combination Emax [7],combination Emax [8],combination Emax (GB-1 (Glioblastoma)),combination Emax [9],combination Emax [10],combination Emax [11],combination Emax [12],combination Emax [13],combination Emax [14],combination Emax (WM278 (Melanoma)),combination Emax [15],combination Emax (A2058 (Melanoma)),combination Emax (IST-MES1 (Mesothelioma))
"C[C@@H](c1ccc2nccn2c1)n1nnc2ncc(-c3cnn(C)c3)nc21 [Savolitinib] + CC1(C)CCC(CN2CCN(c3ccc(C(=O)NS(=O)(=O)c4ccc(NCC5CCOCC5)c([N+](=O)[O-])c4)c(Oc4cnc5[nH]ccc5c4)c3)CC2)=C(c2ccc(Cl)cc2)C1 [Venetoclax] (first compound max 1 µM, 7x7, partner max 1 µM)",0.147,0.12,0.12,0.165,0.221,0.205,0.137,0.211,0.128,0.109,0.284,0.314,0.167,0.0725,0.831,0.0877,0.102,0.141,0.107,0.198
"C[C@@H](c1ccc2nccn2c1)n1nnc2ncc(-c3cnn(C)c3)nc21 [Savolitinib] + Cc1c2c(nn1C)CSCc1cc(n(C)n1)CSc1cc(c3ccccc3c1)OCCCc1c(C(=O)O)n(C)c3c-2c(Cl)ccc13 [AZD5991] (first compound max 1 µM, 7x7, partner max 1 µM)",0.179,0.152,0.174,0.202,0.766,0.915,0.168,0.183,0.788,0.117,0.114,0.34,0.173,0.125,0.839,0.112,0.15,0.861,0.36,0.189
"Cn1cnc2c(F)c(Nc3ccc(Br)cc3Cl)c(C(=O)NOCCO)cc21 [Selumetinib] + C=CCn1c(=O)c2cnc(Nc3ccc(N4CCN(C)CC4)cc3)nc2n1-c1cccc(C(C)(C)O)n1 [AZD1775] (first compound max 10 µM, partner max 1 µM)",0.275,0.712,0.736,0.931,0.798,0.915,0.534,0.181,0.788,0.321,0.498,0.35,0.666,0.717,0.8,0.326,0.641,0.888,0.685,0.189
"Cn1cnc2c(F)c(Nc3ccc(Br)cc3Cl)c(C(=O)NOCCO)cc21 [Selumetinib] + CC(C)n1c(=O)n(C)c2cnc3cc(F)c(-c4ccc(OCCCN5CCCCC5)nc4)cc3c21 [AZD1390] (first compound max 10 µM, 7x7, partner max 0.3 µM)",0.0937,0.155,0.738,0.49,0.139,0.339,0.503,0.143,0.368,0.0241,0.402,0.15,0.402,0.181,0.61,0.112,0.841,0.683,0.426,0.183
"Cn1cnc2c(F)c(Nc3ccc(Br)cc3Cl)c(C(=O)NOCCO)cc21 [Selumetinib] + CCN(CCO)CCCOc1ccc2c(Nc3cc(CC(=O)Nc4cccc(F)c4)[nH]n3)ncnc2c1 [AZD2811] (first compound max 10 µM, 7x7, partner max 1 µM)",0.104,0.28,0.708,0.795,0.572,0.484,0.528,0.188,0.436,0.117,0.407,0.362,0.535,0.343,0.674,0.188,0.581,0.842,0.649,0.269
"Cn1cnc2c(F)c(Nc3ccc(Br)cc3Cl)c(C(=O)NOCCO)cc21 [Selumetinib] + C[C@@H]1COCCN1C2=NC(=NC(=C2)C3(CC3)[S@](=N)(=O)C)C4=C5C=CNC5=NC=C4 [AZD6738] (first compound max 10 µM, 7x7, partner max 10 µM)",0.429,0.753,0.736,0.39,0.915,0.874,0.703,0.203,0.522,0.337,0.476,0.569,0.786,0.556,0.782,0.436,0.587,0.861,0.83,0.269
"CC(=O)Nc1cccc(-n2c(=O)n(C3CC3)c(=O)c3c(Nc4ccc(I)cc4F)n(C)c(=O)c(C)c32)c1 [Trametinib] + Cc1nc(-c2cn3c(n2)-c2ccc(-c4cnn(C(C)(C)C(N)=O)c4)cc2OCC3)n(C(C)C)n1 [Taselisib] (first compound max 1 µM, 7x7, partner max 10 µM)",0.636,0.756,0.946,0.608,0.695,0.686,0.855,0.501,0.949,0.845,0.973,0.459,0.981,0.955,0.799,0.564,0.983,0.907,1,0.434
"CC1(C)CCC(CN2CCN(c3ccc(C(=O)NS(=O)(=O)c4ccc(NCC5CCOCC5)c([N+](=O)[O-])c4)c(Oc4cnc5[nH]ccc5c4)c3)CC2)=C(c2ccc(Cl)cc2)C1 [Venetoclax] + C1CN(CCC1(C(=O)N[C@@H](CCO)C2=CC=C(C=C2)Cl)N)C3=NC=NC4=C3C=CN4 [Capivasertib] (first compound max 1 µM, 7x7, partner max 3 µM)",0.0322,0.254,0.218,0.177,0.882,0.119,0.295,0.0815,0.335,0.185,0.285,0.402,0.663,0.471,0.581,0.227,0.232,0.557,0.323,0.123
"CC1(C)CCC(CN2CCN(c3ccc(C(=O)NS(=O)(=O)c4ccc(NCC5CCOCC5)c([N+](=O)[O-])c4)c(Oc4cnc5[nH]ccc5c4)c3)CC2)=C(c2ccc(Cl)cc2)C1 [Venetoclax] + C=CCn1c(=O)c2cnc(Nc3ccc(N4CCN(C)CC4)cc3)nc2n1-c1cccc(C(C)(C)O)n1 [AZD1775] (first compound max 1 µM, partner max 1 µM)",0.36,0.47,0.391,0.932,0.955,0.855,0.531,0.257,0.753,0.296,0.682,0.733,0.586,0.758,0.765,0.31,0.436,0.795,0.413,0.254
"CC1(C)CCC(CN2CCN(c3ccc(C(=O)NS(=O)(=O)c4ccc(NCC5CCOCC5)c([N+](=O)[O-])c4)c(Oc4cnc5[nH]ccc5c4)c3)CC2)=C(c2ccc(Cl)cc2)C1 [Venetoclax] + CCN(CCO)CCCOc1ccc2c(Nc3cc(CC(=O)Nc4cccc(F)c4)[nH]n3)ncnc2c1 [AZD2811] (first compound max 1 µM, 7x7, partner max 1 µM)",0.152,0.178,0.222,0.851,0.872,0.184,0.258,0.187,0.298,0.094,0.289,0.64,0.361,0.339,0.588,0.153,0.337,0.513,0.402,0.198
"CC1(C)CCC(CN2CCN(c3ccc(C(=O)NS(=O)(=O)c4ccc(NCC5CCOCC5)c([N+](=O)[O-])c4)c(Oc4cnc5[nH]ccc5c4)c3)CC2)=C(c2ccc(Cl)cc2)C1 [Venetoclax] + CN(C)CCCOc1ccc(-c2ccc3ncc4c(c3c2)n(C2CCOCC2)c(=O)n4C)cn1 [AZD0156] (first compound max 1 µM, 7x7, partner max 1 µM)",0.157,0.226,0.3,0.321,0.825,0.122,0.244,0.173,0.242,0.115,0.345,0.424,0.229,0.222,0.688,0.167,0.211,0.279,0.226,0.0799
"CC1(C)CCC(CN2CCN(c3ccc(C(=O)NS(=O)(=O)c4ccc(NCC5CCOCC5)c([N+](=O)[O-])c4)c(Oc4cnc5[nH]ccc5c4)c3)CC2)=C(c2ccc(Cl)cc2)C1 [Venetoclax] + COc1cc(Nc2ncc3c(n2)-c2ccc(Cl)cc2C(c2c(F)cccc2OC)=NC3)ccc1C(=O)O [Alisertib] (first compound max 1 µM, 7x7, partner max 10 µM)",0,0.537,0.526,0.848,0.882,0.464,0.383,0.318,0.688,0.478,0.522,0.719,0.42,0.658,0.563,0.384,0.362,0.498,0.612,0.489

# — the supplement of paper PMC11061612
